Data reported in article PMC5666424, “Marine-Derived 2-Aminoimidazolone Alkaloids. Leucettamine B-Related Polyandrocarpamines Inhibit Mammalian and Protozoan DYRK & CLK Kinases” (Marine Drugs, 2017).
Where two headings read alike, the source gives them in different places.

Legend:
Assay in all cases: Protein kinase assay
CDK1/cyclin B = assay type: biochemical, starfish; settings: 15 μmol/L ATP
CDK2/cyclin A = molecular target: T1, CDK2/cyclin A (Homo sapiens, UniProt P24941); assay type: biochemical; settings: 15 μmol/L ATP; read-out: IC50 CDK2/cyclin A
T1 construct: made in house

CDK5/p25 = molecular target: T2, CDK5/p25 (Homo sapiens, UniProt Q00535); assay type: biochemical; settings: 15 μmol/L ATP; read-out: IC50 CDK5/p25
T2 construct: made in house

CK1δ/ε = assay type: biochemical, porcine; settings: 15 μmol/L ATP
Procedure: (§1) CK1δ/ε (porcine brain, native) and LmCK1 (leishmania major, recombinant, expressed in E. coli as HIS fusion proteins) was assayed as described for CDK1 but in buffer C and using 25 μM CKS peptide ([…]pSAYSITA), a CK1-specific substrate.

DYRK1A = DYRK1A (Homo sapiens, UniProt Q13627); assay type: biochemical; settings: 15 μmol/L ATP
DYRK1B = DYRK1B (Homo sapiens, UniProt Q9Y463); assay type: biochemical; settings: 15 μmol/L ATP
DYRK2 = molecular target: T3, DYRK2 (Homo sapiens, UniProt Q92630); assay type: biochemical; settings: 15 μmol/L ATP; read-out: IC50 DYRK2
T3 sequence (Q92630 1-601): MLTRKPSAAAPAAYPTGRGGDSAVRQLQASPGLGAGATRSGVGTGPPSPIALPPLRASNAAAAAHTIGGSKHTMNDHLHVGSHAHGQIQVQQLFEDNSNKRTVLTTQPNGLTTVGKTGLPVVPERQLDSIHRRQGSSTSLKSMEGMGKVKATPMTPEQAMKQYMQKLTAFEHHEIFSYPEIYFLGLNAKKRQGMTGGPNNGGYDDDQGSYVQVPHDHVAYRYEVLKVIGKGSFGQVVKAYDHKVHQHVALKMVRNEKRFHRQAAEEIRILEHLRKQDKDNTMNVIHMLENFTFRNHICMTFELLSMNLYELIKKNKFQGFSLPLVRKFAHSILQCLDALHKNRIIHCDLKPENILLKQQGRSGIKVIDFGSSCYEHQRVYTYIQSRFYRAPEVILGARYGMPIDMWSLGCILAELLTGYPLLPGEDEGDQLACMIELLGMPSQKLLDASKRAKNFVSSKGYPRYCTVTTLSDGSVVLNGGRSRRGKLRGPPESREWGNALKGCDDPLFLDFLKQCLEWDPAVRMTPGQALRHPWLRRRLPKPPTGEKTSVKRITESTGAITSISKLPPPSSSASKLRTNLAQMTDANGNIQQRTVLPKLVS

DYRK3 = molecular target: T4, DYRK3 (Homo sapiens, UniProt O43781); assay type: biochemical; settings: 15 μmol/L ATP; read-out: IC50 DYRK3
T4 sequence (O43781 1-588): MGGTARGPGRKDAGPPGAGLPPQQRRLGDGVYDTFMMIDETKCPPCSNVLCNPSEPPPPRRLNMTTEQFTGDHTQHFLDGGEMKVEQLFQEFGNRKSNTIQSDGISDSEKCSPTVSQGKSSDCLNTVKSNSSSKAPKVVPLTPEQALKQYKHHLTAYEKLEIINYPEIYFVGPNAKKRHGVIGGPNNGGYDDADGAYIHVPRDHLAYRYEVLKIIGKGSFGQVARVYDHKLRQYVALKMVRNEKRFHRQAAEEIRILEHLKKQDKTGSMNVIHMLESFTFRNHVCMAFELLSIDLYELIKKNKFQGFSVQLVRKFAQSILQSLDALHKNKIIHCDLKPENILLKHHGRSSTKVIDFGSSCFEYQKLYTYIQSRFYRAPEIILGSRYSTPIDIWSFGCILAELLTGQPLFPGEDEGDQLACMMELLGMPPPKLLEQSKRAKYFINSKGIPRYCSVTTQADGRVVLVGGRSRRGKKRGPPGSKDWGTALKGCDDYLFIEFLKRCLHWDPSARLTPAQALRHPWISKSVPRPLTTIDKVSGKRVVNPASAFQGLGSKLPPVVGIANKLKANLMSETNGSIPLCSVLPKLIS

GSK-3α/β = assay type: biochemical, porcine; settings: 15 μmol/L ATP
PfGSK-3 = molecular target: T5, PfGSK-3 (Plasmodium falciparum, UniProt O77344); assay type: biochemical; settings: 15 μmol/L ATP; read-out: IC50 PfGSK-3
T5 sequence (O77344 1-440): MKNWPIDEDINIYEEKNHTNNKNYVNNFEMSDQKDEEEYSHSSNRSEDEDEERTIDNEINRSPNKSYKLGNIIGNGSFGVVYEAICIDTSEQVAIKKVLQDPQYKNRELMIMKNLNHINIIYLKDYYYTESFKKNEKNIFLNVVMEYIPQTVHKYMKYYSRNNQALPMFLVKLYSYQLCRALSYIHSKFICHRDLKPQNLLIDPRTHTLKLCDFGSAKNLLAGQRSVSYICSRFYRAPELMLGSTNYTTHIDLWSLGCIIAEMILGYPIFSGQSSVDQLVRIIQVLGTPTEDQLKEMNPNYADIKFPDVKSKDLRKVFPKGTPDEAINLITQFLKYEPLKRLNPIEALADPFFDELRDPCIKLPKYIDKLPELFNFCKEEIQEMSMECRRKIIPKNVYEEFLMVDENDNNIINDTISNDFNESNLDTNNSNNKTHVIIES
Procedure: The parasitic kinase genes (Supplementary Data, Table S3) were optimized for expression in E. coli, synthesized, and cloned in pGEX-6P-1 (GE Healthcare, Sigma-Aldrich, St. Quentin Fallavier, France) with the type II restriction enzymes BamHI and XhoI for glutathione S-transferase (GST) fusion at the N-terminus (GenScript). Plasmids were transformed into chemically competent E. coli BL21(DE3), which were grown overnight at 37 °C in 2 × YT medium containing 100 μg/mL ampicillin. These cultures were used to inoculate 1 L volumes of 2 × YT medium (containing 100 μg/mL ampicillin) in 5 L flasks. The cultures were allowed to grow at 37 °C before the temperature was decreased to 18 °C. At an optical density at 600 nm (OD600) of about 1.0, protein expression was induced overnight at 18 °C with 0.1 mM isopropyl β-D-1-thiogalactopyranoside (IPTG). The bacteria were harvested by centrifugation and were frozen at −20 °C.
Cells were resuspended in a lysis buffer (PBS pH 7.4, 1% NP40, 1 mM DTT, 1 mM EDTA, 1 mM PMSF) in the presence of protease inhibitor cocktail (Roche), and lysozyme was added to 1 mg/mL and incubated 1 h at 4 °C with gentle agitation. Cells were then sonicated on ice before 6 mM MgCl2 and 25 U/mL benzonase (Novagen, Merck Millipore, Fontenay sous Bois, France) were added to degrade nucleic acids and decrease sample viscosity. After centrifugation at 4 °C, the soluble fraction was collected and proteins were bound to Glutathione sepharose 4B beads (GE Healthcare). Beads were washed three times with lysis buffer and once with modified buffer C (25 mM MOPS pH 7.0, 60 mM β-glycerophosphate, 15 mM p-nitrophenylphosphate, 15 mM EGTA, 15 mM MgCl2, 2 mM DTT, 1 mM sodium vanadate). Proteins were eluted with elution buffer (buffer C containing 30 mM reduced glutathione, 15% glycerol, and pH adjusted to 8.5).

LmCK1 = LmCK1 (Leishmania major, UniProt Q9NHE1); assay type: biochemical; settings: 15 μmol/L ATP; read-out: IC50 LmCK1
Procedure: as §1

CDK9/cyclin T = CDK9/cyclin T (Homo sapiens, UniProt P50750); settings: 15 μmol/L ATP
CLK1 = CLK1 (Mus musculus, UniProt P22518)
CLK2 = CLK2 (Mus musculus, UniProt O35491)
CLK3 = CLK3 (Mus musculus, UniProt O35492)
CLK4 = CLK4 (Mus musculus, UniProt O35493)
[1] = read-out: IC50 CLK1, 15 μmol/L ATP
[2] = read-out: IC50 CLK2, 15 μmol/L ATP
[3] = read-out: IC50 CLK3, 15 μmol/L ATP
[4] = read-out: IC50 CLK4, 15 μmol/L ATP

Chain of DYRK1B (Q9Y463 whole entry): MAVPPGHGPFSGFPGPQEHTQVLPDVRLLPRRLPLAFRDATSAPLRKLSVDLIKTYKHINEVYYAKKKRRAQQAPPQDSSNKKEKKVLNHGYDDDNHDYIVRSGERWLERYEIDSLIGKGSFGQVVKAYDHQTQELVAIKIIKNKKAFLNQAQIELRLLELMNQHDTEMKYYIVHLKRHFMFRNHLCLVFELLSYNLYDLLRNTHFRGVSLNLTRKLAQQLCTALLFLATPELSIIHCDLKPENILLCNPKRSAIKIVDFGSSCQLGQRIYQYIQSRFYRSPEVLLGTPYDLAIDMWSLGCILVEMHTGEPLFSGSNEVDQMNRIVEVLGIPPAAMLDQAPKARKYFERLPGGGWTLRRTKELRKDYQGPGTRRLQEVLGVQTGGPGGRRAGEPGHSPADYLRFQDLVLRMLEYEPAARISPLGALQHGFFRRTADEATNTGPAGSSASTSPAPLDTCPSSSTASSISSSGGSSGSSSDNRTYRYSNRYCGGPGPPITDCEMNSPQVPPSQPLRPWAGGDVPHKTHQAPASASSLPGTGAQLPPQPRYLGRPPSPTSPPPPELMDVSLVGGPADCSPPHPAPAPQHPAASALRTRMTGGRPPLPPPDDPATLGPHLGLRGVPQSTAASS
Chain of CLK3 (O35492 whole entry): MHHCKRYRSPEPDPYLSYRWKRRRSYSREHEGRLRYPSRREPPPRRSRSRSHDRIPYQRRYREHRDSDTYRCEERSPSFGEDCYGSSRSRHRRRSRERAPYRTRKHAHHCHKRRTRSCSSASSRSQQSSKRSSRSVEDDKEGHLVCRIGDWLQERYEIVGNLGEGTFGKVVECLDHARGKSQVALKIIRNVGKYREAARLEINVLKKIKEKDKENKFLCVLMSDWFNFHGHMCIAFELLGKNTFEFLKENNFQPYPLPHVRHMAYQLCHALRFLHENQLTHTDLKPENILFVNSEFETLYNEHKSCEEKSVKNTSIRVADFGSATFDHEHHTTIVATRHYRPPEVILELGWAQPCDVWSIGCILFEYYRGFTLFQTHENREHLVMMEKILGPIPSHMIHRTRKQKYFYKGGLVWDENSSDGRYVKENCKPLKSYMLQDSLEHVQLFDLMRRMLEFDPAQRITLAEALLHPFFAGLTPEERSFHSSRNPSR
Chain of CDK9/cyclin T (P50750 whole entry): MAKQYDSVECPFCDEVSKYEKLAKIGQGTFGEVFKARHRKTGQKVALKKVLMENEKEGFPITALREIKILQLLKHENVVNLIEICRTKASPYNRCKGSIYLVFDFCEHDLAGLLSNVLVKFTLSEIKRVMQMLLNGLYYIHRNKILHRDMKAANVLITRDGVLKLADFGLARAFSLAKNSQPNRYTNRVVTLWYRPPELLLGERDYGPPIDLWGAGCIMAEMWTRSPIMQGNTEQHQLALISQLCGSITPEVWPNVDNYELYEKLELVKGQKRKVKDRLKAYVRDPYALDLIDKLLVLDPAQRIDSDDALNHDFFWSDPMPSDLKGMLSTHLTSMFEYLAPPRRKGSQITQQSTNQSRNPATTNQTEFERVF
Chain of CDK9/cyclin T (O60563 whole entry partner): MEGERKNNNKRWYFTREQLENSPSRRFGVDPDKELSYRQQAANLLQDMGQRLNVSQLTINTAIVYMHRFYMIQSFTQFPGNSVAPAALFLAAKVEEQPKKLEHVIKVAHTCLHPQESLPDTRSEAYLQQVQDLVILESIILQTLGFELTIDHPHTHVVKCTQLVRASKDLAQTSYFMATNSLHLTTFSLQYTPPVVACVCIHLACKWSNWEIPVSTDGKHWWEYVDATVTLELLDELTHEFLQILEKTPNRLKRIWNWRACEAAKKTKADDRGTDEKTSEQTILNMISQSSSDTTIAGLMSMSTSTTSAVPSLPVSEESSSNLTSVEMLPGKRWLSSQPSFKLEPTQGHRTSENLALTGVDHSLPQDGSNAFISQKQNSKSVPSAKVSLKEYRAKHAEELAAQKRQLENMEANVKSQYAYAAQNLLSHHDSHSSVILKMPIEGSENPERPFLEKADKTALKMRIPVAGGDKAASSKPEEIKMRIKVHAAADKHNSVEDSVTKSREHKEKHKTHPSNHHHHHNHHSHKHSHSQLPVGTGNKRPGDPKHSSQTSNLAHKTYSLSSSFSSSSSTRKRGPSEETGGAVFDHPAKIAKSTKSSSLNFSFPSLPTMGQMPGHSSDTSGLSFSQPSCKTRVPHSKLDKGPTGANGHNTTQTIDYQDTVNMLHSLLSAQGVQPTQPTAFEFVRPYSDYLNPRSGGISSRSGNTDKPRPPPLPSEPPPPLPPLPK
Chain of CLK1 (P22518 whole entry): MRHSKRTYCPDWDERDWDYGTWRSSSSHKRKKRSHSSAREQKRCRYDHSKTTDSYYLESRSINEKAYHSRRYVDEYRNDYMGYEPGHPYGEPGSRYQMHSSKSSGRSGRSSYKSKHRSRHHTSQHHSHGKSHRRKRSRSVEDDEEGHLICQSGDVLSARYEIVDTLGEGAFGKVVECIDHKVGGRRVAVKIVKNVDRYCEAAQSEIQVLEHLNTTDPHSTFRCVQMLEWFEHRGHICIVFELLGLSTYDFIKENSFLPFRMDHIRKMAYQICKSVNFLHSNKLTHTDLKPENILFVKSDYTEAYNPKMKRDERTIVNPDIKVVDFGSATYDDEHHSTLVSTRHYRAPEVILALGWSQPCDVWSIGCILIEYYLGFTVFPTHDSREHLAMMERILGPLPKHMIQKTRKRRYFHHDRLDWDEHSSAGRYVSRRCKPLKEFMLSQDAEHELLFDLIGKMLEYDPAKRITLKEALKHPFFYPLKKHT
Chain of CLK2 (O35491 whole entry): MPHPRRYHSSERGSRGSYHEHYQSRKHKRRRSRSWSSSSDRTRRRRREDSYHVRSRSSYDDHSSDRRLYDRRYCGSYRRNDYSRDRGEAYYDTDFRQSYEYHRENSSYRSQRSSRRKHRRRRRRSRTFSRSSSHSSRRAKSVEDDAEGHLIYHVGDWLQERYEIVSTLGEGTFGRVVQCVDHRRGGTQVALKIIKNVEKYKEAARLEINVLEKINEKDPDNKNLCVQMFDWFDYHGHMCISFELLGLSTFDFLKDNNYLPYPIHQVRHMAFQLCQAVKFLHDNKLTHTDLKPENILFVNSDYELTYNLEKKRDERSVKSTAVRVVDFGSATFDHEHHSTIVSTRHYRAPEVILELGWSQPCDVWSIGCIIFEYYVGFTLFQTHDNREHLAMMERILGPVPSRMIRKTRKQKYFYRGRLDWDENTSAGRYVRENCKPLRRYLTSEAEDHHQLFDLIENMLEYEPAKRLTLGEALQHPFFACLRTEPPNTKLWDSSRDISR
Chain of LmCK1 (Q9NHE1 entry or part of it): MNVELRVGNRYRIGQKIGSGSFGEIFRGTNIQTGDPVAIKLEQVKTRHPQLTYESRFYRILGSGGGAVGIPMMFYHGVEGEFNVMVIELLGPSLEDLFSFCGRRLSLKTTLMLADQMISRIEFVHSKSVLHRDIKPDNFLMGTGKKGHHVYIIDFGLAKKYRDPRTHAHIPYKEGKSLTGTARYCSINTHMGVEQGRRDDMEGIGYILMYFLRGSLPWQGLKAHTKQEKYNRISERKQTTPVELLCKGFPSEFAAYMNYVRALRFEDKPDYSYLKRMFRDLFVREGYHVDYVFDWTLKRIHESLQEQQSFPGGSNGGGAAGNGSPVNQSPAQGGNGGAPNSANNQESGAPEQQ
Chain of CLK4 (O35493 whole entry): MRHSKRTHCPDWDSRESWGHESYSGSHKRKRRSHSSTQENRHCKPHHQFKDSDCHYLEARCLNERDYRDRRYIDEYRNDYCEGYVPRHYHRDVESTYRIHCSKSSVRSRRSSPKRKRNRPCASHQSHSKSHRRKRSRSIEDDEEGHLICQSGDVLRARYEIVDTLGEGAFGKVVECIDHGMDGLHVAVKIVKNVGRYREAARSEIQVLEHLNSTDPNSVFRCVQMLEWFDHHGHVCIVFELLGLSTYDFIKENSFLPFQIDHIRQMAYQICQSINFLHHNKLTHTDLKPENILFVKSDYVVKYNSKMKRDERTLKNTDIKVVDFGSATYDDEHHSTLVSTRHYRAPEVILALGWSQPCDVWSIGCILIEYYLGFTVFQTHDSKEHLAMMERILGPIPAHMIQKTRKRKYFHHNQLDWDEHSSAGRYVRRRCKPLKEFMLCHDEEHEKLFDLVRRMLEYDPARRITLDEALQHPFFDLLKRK
T2 sequence (Q00535 whole entry): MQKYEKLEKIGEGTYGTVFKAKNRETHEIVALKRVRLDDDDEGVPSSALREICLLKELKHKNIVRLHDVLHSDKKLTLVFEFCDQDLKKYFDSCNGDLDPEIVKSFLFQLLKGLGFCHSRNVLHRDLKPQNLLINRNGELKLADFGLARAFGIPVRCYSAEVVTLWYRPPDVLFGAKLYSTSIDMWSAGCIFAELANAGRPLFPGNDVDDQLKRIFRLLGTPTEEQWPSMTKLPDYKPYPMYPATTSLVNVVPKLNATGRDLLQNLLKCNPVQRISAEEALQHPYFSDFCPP
T2 sequence (Q15078 99-307 partner limits assumed): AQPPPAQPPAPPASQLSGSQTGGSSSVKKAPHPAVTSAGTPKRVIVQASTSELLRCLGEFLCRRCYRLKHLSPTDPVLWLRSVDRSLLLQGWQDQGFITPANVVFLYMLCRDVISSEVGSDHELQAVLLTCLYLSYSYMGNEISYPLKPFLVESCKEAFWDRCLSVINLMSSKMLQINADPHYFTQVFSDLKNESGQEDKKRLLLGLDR

SMILES	IC50 (CDK1/cyclin B) [µM]	IC50 (CDK2/cyclin A) [µM]	IC50 (CDK5/p25) [µM]	IC50 (CK1δ/ε) [µM]	IC50 (DYRK1A) [µM]	IC50 (DYRK1B) [µM]	IC50 (DYRK2) [µM]	IC50 (DYRK3) [µM]	IC50 (GSK-3α/β) [µM]	IC50 (PfGSK-3) [µM]	IC50 (LmCK1) [µM]	IC50 (CDK9/cyclin T; read-out: IC50 CDK9/cyclin T) [µM]	IC50 (CLK1; [1]) [µM]	IC50 (CLK2; [2]) [µM]	IC50 (CLK3; [3]) [µM]	IC50 (CLK4; [4]) [µM]	IC50 (CDK9/cyclin T; IC50 CDK9/cyclin T) [µM]	IC50 (CLK2; IC50 CLK2, 15 μmol/L ATP) [µM]	IC50 (CLK3; IC50 CLK3, 15 μmol/L ATP) [µM]	IC50 (CLK4; IC50 CLK4, 15 μmol/L ATP) [µM]	also measured
NC1=NC(=Cc2cccc(Br)c2)C(=O)N1 [PAC3]	> 10	≥ 10	> 10	≥ 10	2.1	8.2	2.2	> 10	> 10	> 10	> 10	> 10	2.2	6.3	> 10	2.3	–	–	–	–	–
NC1=NC(=Cc2ccc(-n3ccnc3)cc2)C(=O)N1 [PAC8]	> 10	> 10	> 10	> 10	> 10	> 10	> 10	> 10	> 10	> 10	> 10	0.51	> 10	> 10	> 10	> 10	–	–	–	–	–
COc1cc(/C=C2\N=C(N)NC2=O)ccc1O [PAC12, polyandrocarpamine A]	–	–	–	–	0.3	0.47	0.24	0.34	–	–	–	–	–	–	–	–	0.9	0.64	2.7	0.47	IC50 (CK1δ/ε; listed as 12): 5 µM; IC50 (CLK1; IC50 CLK1, 15 μmol/L ATP): 0.47 µM
Cc1ccc(C=C2N=C(N)NC2=O)s1 [PAC10]	> 10	> 10	> 10	> 10	3	> 10	3.4	> 10	> 10	> 10	> 10	> 10	> 10	> 10	> 10	> 10	–	–	–	–	–
COc1cc(/C=C2\N=C(N)NC2=O)ccc1O [PAC1, polyandrocarpamine A]	> 10	–	–	–	0.23	0.4	0.14	0.28	> 10	–	–	–	–	–	–	–	1.1	1.2	2.3	0.4	IC50 (CK1δ/ε; listed as 1): 5.2 µM; IC50 (CLK1; IC50 CLK1, 15 μmol/L ATP): 0.43 µM
NC1=N/C(=C\c2ccc(O)c(O)c2)C(=O)N1 [PAC2, polyandrocarpamine B]	–	–	–	–	0.75	1.1	0.48	0.9	–	–	–	–	–	–	–	–	2	2.5	9.2	0.95	–
NC1=N/C(=C\c2ccc(O)c(O)c2)C(=O)N1 [PAC13, polyandrocarpamine B]	–	–	–	–	0.59	0.96	0.38	0.68	–	–	–	–	–	–	–	–	1.8	2.42	10	0.91	–
COc1ccc(C=C2N=C(N)NC2=O)cc1F [PAC4]	> 10	≥ 10	> 10	≥ 10	4	> 10	4.5	5.1	> 10	> 10	> 10	> 10	≥ 10	> 10	> 10	≥ 10	–	–	–	–	–
NC1=NC(=Cc2ccccc2N2CCOCC2)C(=O)N1 [PAC7]	> 10	> 10	> 10	> 10	> 10	> 10	> 10	> 10	> 10	> 10	> 10	> 10	> 10	> 10	> 10	> 10	–	–	–	–	–
NC1=NC(=Cc2c[nH]nc2-c2ccccc2)C(=O)N1 [PAC9]	> 10	> 10	> 10	3.6	> 10	> 10	> 10	> 10	> 10	> 10	0.63	> 10	≥ 10	> 10	> 10	> 10	–	–	–	–	–
